Test results reported in patent US20080241274A1 (ZIOPHARM Oncology, Inc., priority 2006, published 2008).
Like-named read-outs stand apart in the source and are kept apart here.

How the values were obtained:
[1] = test system: SKOV3 (ovarian); assay: Monolayer assay (DNA content by propidium iodide), single agents and indibulin combinations, SKOV3; type: cell-based, human; conditions: Homo sapiens
Description: The monolayer assay determines the in vitro antitumor activity of test compounds and their capacity to inhibit survival and proliferation of established tumor cell lines. These effects can be determined by establishing the number of viable cells based on measuring the DNA content using propidium iodide. […] Between 5,000 and 10,000 cells were seeded in 96 well plates on Day 0 and the compounds were added 1 day later and incubated for 4 days. The activity was assessed by their IC50 and IC70 values.
Growth IC50 and IC70 values (Table 2) were determined using XLfit software package, and used to set the concentration ranges and drug ratios for the synergy detection part of the study.
Chou-Talalay median effect method was used to quantitatively characterize drug-drug interaction [Chou T. C. Theoretical basis, experimental design, and computerized simulation of synergism and antagonism in drug combination studies. Pharmacol Rev. 2006 September; 58(3):621-81]. […] Mixtures of the drugs at multiples of their single agent IC50's were prepared, as well as serial dilutions of the mixture. Additionally, single agent dose response was determined for the same concentration ranges as used for combination study.
The coefficient of interaction (CI(IC50)) at IC50 and coefficient of interaction under optimal experimental concentrations (CI(e)) were determined using CalcuSyn software package (Table 3, tests were performed in quadruplicate, mean values reported). Commonly, experimental values of CI<0.8 are considered synergistic, 0.8<CI<1.2 additive.

[2] = test system: MCF7 breast cancer xenografts; assay: MCF7 breast cancer xenograft; type: in vivo, Human; conditions: 38.3 mg/kg/d, 4×(3× week), at sacrifice of control group animals
Source text: (§1) The significant differences in pharmacodynamics and safety profile of indibulin make it a strong candidate for development as an anti-cancer drug.

[3] = test system: human prostate cancer xenograft (PC-3); assay: PC-3 prostate cancer xenograft; type: in vivo; conditions: 180 mg/kg/d, d. 0, 7, 14, at sacrifice of control group animals
Source text: as §1

**Q.** `O=C(Nc1ccncc1)C(=O)c1cn(Cc2ccc(Cl)cc2)c2ccccc12` [Indibulin, N-(pyridin-4-yl)-[1-(4-chlorobenzyl)-indol-3-yl]-glyoxylic acid amide] was tested. Which IC50 ([1]; SK-OV-3, SKOV3, single agent (combination study), read-out: Single Agent IC50) did it give?
**A.** 0.415 µg/mL

**Q.** What about the IC50 ([1]; SK-OV-3, SKOV3, indibulin + carboplatin, concentration of the named drug in the combination, read-out: Combination IC50) of the same compound?
**A.** 0.029 µg/mL

**Q.** And the IC50 ([1]; SK-OV-3, SKOV3, indibulin + cisplatin, concentration of the named drug in the combination, read-out: Combination IC50)?
**A.** 0.022 µg/mL

**Q.** And the IC50 ([1]; SK-OV-3, SKOV3, indibulin + gemcitabine, concentration of the named drug in the combination, read-out: Combination IC50)?
**A.** 0.047 µg/mL

**Q.** What about the “Growth Inhibition (%)” value [2] of the same compound?
**A.** >100%

**Q.** What about the “Growth Inhibition (%)” value [3] of the same compound?
**A.** 63%
